{"source": "patent US12564595B2", "about": "“Prophylactic and therapeutic pharmaceutical agent for HIV infectious diseases characterized by comprising combination of integrase inhibitor and anti-HIV agent” (Shionogi & Co., Ltd., priority 2019, dated 2026)"}
{"target": "T1, voltage-gated sodium channel (Nav 1.5 channel) (Homo sapiens, UniProt Q14524)", "T1 construct": "expressed in transfected cells; host or cells: HEK cells", "T1 sequence (Q14524 whole entry)": "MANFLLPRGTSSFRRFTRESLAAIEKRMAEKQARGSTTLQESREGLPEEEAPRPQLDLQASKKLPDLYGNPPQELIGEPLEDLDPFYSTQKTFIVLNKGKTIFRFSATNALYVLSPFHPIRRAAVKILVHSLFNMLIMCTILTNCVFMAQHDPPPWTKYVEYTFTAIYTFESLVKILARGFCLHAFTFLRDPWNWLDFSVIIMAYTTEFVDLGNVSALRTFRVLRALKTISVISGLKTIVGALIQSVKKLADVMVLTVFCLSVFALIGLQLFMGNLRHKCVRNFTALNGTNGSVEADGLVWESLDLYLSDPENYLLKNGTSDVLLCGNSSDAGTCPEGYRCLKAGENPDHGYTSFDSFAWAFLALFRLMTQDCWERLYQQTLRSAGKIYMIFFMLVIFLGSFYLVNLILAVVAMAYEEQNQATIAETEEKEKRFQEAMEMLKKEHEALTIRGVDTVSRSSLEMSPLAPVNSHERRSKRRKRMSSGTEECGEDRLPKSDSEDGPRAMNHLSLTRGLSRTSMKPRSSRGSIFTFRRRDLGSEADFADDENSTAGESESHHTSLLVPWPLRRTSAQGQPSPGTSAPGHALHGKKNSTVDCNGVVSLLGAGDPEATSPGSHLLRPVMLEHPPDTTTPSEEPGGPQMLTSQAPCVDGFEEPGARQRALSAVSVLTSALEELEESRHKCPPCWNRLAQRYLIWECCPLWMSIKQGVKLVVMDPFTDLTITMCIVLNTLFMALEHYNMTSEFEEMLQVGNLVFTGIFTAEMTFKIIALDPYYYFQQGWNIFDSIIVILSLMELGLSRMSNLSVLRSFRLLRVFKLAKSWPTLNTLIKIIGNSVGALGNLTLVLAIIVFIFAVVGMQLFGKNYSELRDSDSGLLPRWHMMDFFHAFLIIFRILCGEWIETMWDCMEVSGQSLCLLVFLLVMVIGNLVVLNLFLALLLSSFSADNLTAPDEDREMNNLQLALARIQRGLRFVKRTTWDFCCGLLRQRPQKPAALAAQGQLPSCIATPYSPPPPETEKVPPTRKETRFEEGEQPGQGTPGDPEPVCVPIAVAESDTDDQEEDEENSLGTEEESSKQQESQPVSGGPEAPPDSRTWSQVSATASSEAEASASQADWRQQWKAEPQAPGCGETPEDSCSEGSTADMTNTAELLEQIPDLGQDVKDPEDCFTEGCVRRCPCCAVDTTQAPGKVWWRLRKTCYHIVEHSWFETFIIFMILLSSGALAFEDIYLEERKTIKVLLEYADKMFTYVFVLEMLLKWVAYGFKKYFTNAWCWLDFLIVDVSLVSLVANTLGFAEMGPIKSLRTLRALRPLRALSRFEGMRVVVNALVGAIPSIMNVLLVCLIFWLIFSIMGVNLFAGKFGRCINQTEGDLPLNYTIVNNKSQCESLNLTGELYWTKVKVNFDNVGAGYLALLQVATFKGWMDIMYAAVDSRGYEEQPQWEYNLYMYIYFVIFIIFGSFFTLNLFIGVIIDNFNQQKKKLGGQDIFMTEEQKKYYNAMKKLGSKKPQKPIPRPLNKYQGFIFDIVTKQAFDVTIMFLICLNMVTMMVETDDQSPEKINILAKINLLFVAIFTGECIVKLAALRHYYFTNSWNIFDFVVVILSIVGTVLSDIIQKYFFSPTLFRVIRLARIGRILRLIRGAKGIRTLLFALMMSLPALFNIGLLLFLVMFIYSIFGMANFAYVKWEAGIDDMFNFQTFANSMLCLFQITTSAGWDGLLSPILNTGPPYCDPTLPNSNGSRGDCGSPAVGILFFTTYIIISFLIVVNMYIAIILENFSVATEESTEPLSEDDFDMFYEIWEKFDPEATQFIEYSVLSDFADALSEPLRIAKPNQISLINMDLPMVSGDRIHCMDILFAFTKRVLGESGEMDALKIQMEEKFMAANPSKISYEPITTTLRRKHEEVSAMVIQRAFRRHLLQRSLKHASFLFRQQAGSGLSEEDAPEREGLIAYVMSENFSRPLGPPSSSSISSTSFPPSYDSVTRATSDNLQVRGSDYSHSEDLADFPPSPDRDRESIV", "assay": "Test Example 14: Nav test (patch clamp, HEK cells)", "format": "cell-based", "details": "HEK cells expressing Nav 1.5 channel, whole cell patch clamp", "experimental": "Using a fully automatic patch clamp system (QPatch: Sophion Bioscience A/S), by the whole cell patch clamp method, the cells were maintained at a membrane potential of −100 mV and the induced INa when a −10 mV depolarization stimulus was applied for 20 msec was recorded. […] From the INa obtained, using analysis software (QPatch: Sophion Bioscience A/S), the absolute value of the maximum peak current was measured, with reference to the current value at the maintained membrane potential.", "units": {"ratio of maximum peak current (INa) on application of compound to that on application of medium": "%"}}
{"smiles": "COC[C@@H]1CC[C@H]2N(C)C(=O)c3c(O)c(=O)c(C(=O)NCc4cccc(Cl)c4F)cn3N12", "note": "[II-026]", "ratio of maximum peak current (INa) on application of compound to that on application of medium": 79}
{"smiles": "CCN1C(=O)c2c(O)c(=O)c(-c3nnc(Cc4ccc(F)cc4)s3)cn2N2[C@H](COC)CC[C@@H]12", "note": "[II-118]", "ratio of maximum peak current (INa) on application of compound to that on application of medium": 86.2}
{"tested_on": "HIV mutant strain 1 (E138K/G140S/Q148H/N155H)", "assay": "Test Example 2: resistance evaluation test (HeLa-CD4 reporter), mutant strain 1", "format": "cell-based", "details": "FC=EC50 of mutant strain/EC50 of wild strain; HeLa-CD4 cells", "in_short": "(§1)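 HeLa-CD4 reporter cells were infected with wild-type or mutant HIV in the presence of serially diluted compound and cultured 3 days. Cell lysates were read by chemiluminescent reporter assay after about 1 h at room temperature. Fold change was calculated as mutant EC50 divided by wild-type EC50.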"}
{"smiles": "COC[C@@H]1CC[C@H]2N(C)C(=O)c3c(O)c(=O)c(C(=O)NCc4cccc(Cl)c4F)cn3N12", "note": "[II-026]", "FC in respect of mutant strain 1 (E138K/G140S/Q148H/N155H)": 10}
{"smiles": "CCN1C(=O)c2c(O)c(=O)c(-c3nnc(Cc4ccc(F)cc4)s3)cn2N2[C@H](COC)CC[C@@H]12", "note": "[II-118]", "FC in respect of mutant strain 1 (E138K/G140S/Q148H/N155H)": 20}
{"tested_on": "not listed separately", "assay": "Test Example 8: metabolic stability test", "format": "in vitro ADME, human", "details": "pooled human liver microsomes, 30 min at 37° C., NADPH, compound concentration 0.5 μmol/L", "in_short": "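Pooled human liver microsomes (0.5 mg protein/mL, Tris-HCl pH 7.4) incubated with compound and 1 mmol/L NADPH for 0 or 30 min at 37° C. After methanol/acetonitrile quench, remaining parent was quantified by LC/MS/MS or SPE/MS and expressed as % of the 0 min amount.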", "units": {"Remaining percentage": "%"}}
{"smiles": "COC[C@@H]1CC[C@H]2N(C)C(=O)c3c(O)c(=O)c(C(=O)NCc4cccc(Cl)c4F)cn3N12", "note": "[II-026]", "Remaining percentage": 86}
{"smiles": "CCN1C(=O)c2c(O)c(=O)c(-c3nnc(Cc4ccc(F)cc4)s3)cn2N2[C@H](COC)CC[C@@H]12", "note": "[II-118]", "Remaining percentage": 92.4}
{"tested_on": "HIV mutant strain 2 (E92Q/E138T/G140S/Q148H)", "assay": "Test Example 2: resistance evaluation test (HeLa-CD4 reporter), mutant strain 2", "format": "cell-based", "details": "FC=EC50 of mutant strain/EC50 of wild strain; HeLa-CD4 cells", "in_short": "as §1"}
{"smiles": "COC[C@@H]1CC[C@H]2N(C)C(=O)c3c(O)c(=O)c(C(=O)NCc4cccc(Cl)c4F)cn3N12", "note": "[II-026]", "FC in respect of mutant strain 2 (E92Q/E138T/G140S/Q148H)": 6.9}
{"smiles": "CCN1C(=O)c2c(O)c(=O)c(-c3nnc(Cc4ccc(F)cc4)s3)cn2N2[C@H](COC)CC[C@@H]12", "note": "[II-118]", "FC in respect of mutant strain 2 (E92Q/E138T/G140S/Q148H)": 31}
{"tested_on": "HIV", "assay": "Test Example 3: test for confirmation of combined use effect", "format": "cell-based", "set-up": "key to D value (dosewise additivity value): <-0.1 synergy, -0.1 to 0.1 additive, >0.1 antagonism", "details": "combination with compound (B) Compound C (CAI)", "description": "(§2) The two compounds in respect of which the effect of combined use was desired to be examined were mixed in various ratios, and the anti-HIV activity (50% HIV inhibiting concentration) for each combination was found by the method of test example 1. […] A brief description of the method of calculating the D value is given below.\n(§3) The D value that is found by evaluating the anti-HIV activity of respective combinations of M concentrations of compound X1 and N concentrations of compound X2 is calculated by the following mathematical expression 1.\n(§4) The effect of combined use was evaluated in terms of the D value in accordance with the following criteria • −0.5 to −0.2: strong synergetic effect • −0.2 to −0.1: weak synergetic effect • […]: additive synergetic effect • 0.1 to 0.2: weak antagonism • 0.2 to 0.5: strong antagonism"}
{"smiles": "COC[C@@H]1CC[C@H]2N(C)C(=O)c3c(O)c(=O)c(C(=O)NCc4cccc(Cl)c4F)cn3N12", "note": "[II-026]", "D value (dosewise additivity value)": 0.043, "effect of combined use": "Additive (−0.1 to −0.1: additive synergetic effect)"}
{"tested_on": "HIV", "assay": "Test Example 3: test for confirmation of combined use effect", "format": "cell-based", "set-up": "key to D value (dosewise additivity value): <-0.1 synergy, -0.1 to 0.1 additive, >0.1 antagonism", "details": "combination with compound (B) Darunavin (PI)", "description": "as §2, §3, §4"}
{"smiles": "COC[C@@H]1CC[C@H]2N(C)C(=O)c3c(O)c(=O)c(C(=O)NCc4cccc(Cl)c4F)cn3N12", "note": "[II-026]", "D value (dosewise additivity value)": "−0.137"}
{"tested_on": "HIV", "assay": "Test Example 3: test for confirmation of combined use effect", "format": "cell-based", "set-up": "key to D value (dosewise additivity value): <-0.1 synergy, -0.1 to 0.1 additive, >0.1 antagonism", "details": "combination with compound (B) Darunavir (PI)", "description": "as §2, §3, §4"}
{"smiles": "COC[C@@H]1CC[C@H]2N(C)C(=O)c3c(O)c(=O)c(C(=O)NCc4cccc(Cl)c4F)cn3N12", "note": "[II-026]", "effect of combined use": "Weak synergy (−0.2 to −0.1: weak synergetic effect)"}
{"tested_on": "HIV", "assay": "Test Example 3: test for confirmation of combined use effect", "format": "cell-based", "set-up": "key to D value (dosewise additivity value): <-0.1 synergy, -0.1 to 0.1 additive, >0.1 antagonism", "details": "combination with compound (B) GS-6207 (CAI)", "description": "as §2, §3, §4"}
{"smiles": "COC[C@@H]1CC[C@H]2N(C)C(=O)c3c(O)c(=O)c(C(=O)NCc4cccc(Cl)c4F)cn3N12", "note": "[II-026]", "D value (dosewise additivity value)": "−0.043", "effect of combined use": "Additive (−0.1 to −0.1: additive synergetic effect)"}
{"tested_on": "HIV", "assay": "Test Example 3: test for confirmation of combined use effect", "format": "cell-based", "set-up": "key to D value (dosewise additivity value): <-0.1 synergy, -0.1 to 0.1 additive, >0.1 antagonism", "details": "combination with compound (B) GSK2838232 (maturation inhibitor)", "description": "as §2, §3, §4"}
{"smiles": "COC[C@@H]1CC[C@H]2N(C)C(=O)c3c(O)c(=O)c(C(=O)NCc4cccc(Cl)c4F)cn3N12", "note": "[II-026]", "D value (dosewise additivity value)": "−0.061", "effect of combined use": "Additive (−0.1 to −0.1: additive synergetic effect)"}
{"tested_on": "HIV", "assay": "Test Example 3: test for confirmation of combined use effect", "format": "cell-based", "set-up": "key to D value (dosewise additivity value): <-0.1 synergy, -0.1 to 0.1 additive, >0.1 antagonism", "details": "combination with compound (B) I′-189 (INLAI)", "description": "as §2, §3, §4"}
{"smiles": "COC[C@@H]1CC[C@H]2N(C)C(=O)c3c(O)c(=O)c(C(=O)NCc4cccc(Cl)c4F)cn3N12", "note": "[II-026]", "D value (dosewise additivity value)": 0.056, "effect of combined use": "Additive (−0.1 to −0.1: additive synergetic effect)"}
{"tested_on": "HIV", "assay": "Test Example 3: test for confirmation of combined use effect", "format": "cell-based", "set-up": "key to D value (dosewise additivity value): <-0.1 synergy, -0.1 to 0.1 additive, >0.1 antagonism", "details": "combination with compound (B) Lilpiperine (polymerase inhibitor)", "description": "as §2, §3, §4"}
{"smiles": "COC[C@@H]1CC[C@H]2N(C)C(=O)c3c(O)c(=O)c(C(=O)NCc4cccc(Cl)c4F)cn3N12", "note": "[II-026]", "effect of combined use": "Additive (−0.1 to −0.1: additive synergetic effect)"}
{"tested_on": "HIV", "assay": "Test Example 3: test for confirmation of combined use effect", "format": "cell-based", "set-up": "key to D value (dosewise additivity value): <-0.1 synergy, -0.1 to 0.1 additive, >0.1 antagonism", "details": "combination with compound (B) Ramipzin (3TC) (polymerase inhibitor)", "description": "as §2, §3, §4"}
{"smiles": "COC[C@@H]1CC[C@H]2N(C)C(=O)c3c(O)c(=O)c(C(=O)NCc4cccc(Cl)c4F)cn3N12", "note": "[II-026]", "D value (dosewise additivity value)": "−0.232", "effect of combined use": "Strong synergy (−0.5 to −0.2: strong synergetic effect)"}
{"tested_on": "HIV", "assay": "Test Example 3: test for confirmation of combined use effect", "format": "cell-based", "set-up": "key to D value (dosewise additivity value): <-0.1 synergy, -0.1 to 0.1 additive, >0.1 antagonism", "details": "combination with compound (B) Rilpivirine (polymerase inhibitor)", "description": "as §2, §3, §4"}
{"smiles": "COC[C@@H]1CC[C@H]2N(C)C(=O)c3c(O)c(=O)c(C(=O)NCc4cccc(Cl)c4F)cn3N12", "note": "[II-026]", "D value (dosewise additivity value)": "−0.077"}
{"tested_on": "HIV", "assay": "Test Example 3: test for confirmation of combined use effect", "format": "cell-based", "set-up": "key to D value (dosewise additivity value): <-0.1 synergy, -0.1 to 0.1 additive, >0.1 antagonism", "details": "combination with compound (B) VM-1500 (polymerase inhibitor)", "description": "as §2, §3, §4"}
{"smiles": "COC[C@@H]1CC[C@H]2N(C)C(=O)c3c(O)c(=O)c(C(=O)NCc4cccc(Cl)c4F)cn3N12", "note": "[II-026]", "D value (dosewise additivity value)": "−0.155", "effect of combined use": "Weak synergy (−0.2 to −0.1: weak synergetic effect)"}
{"tested_on": "HIV", "assay": "microbe, parasite or virus in culture", "format": "cell-based", "details": "Human immunodeficiency virus 1, MT4, 96 h, read-out: EC50 (50% HIV inhibition concentration), MT-4 cells, HIV, cultured four days, MTT; compounds of formula (I) of (A)", "experimental": "A serial dilution series of test samples was prepared in 96-well microplates (50 μL/well).\n100 μL/well in each case were dispensed onto plates having test samples of 2.5×10^5/mL MT-4 cell suspension, and HIV virus solution was then dispensed thereto in the amount of 50 μL/well. Mixing was performed using a plate mixer and culturing was performed for four days in a CO2 incubator. MTT (3-(4,5-dimethylthiazol-2-yl)-2,5-diphenyltetrazolium bromide) liquid was dispensed into each well in the amount of 30 μL in each case. The reaction was conducted for 1 h in a CO2 incubator. 150 μL of supernatant were removed from each well, taking care not to aspirate any cells. 150 μL of cell solution were added, and thorough mixing was performed with a plate mixer until all the cells had been dissolved. The optical absorbance of the mixed plates was measured at two wavelengths: 560 nm/690 nm, with a microplate reader.", "units": {"EC50": "nM"}}
{"smiles": "CCN1C(=O)c2c(O)c(=O)c(-c3nnc(Cc4ccc(F)cc4)s3)cn2N2[C@H](COC)CC[C@@H]12", "note": "[II-118]", "EC50": 0.96}
{"tested_on": "HIV", "assay": "Test Example 16: anti-HIV activity in the presence of human serum protein (MT-4 cells)", "format": "cell-based", "details": "100% extrapolation value, PS=4×(EC50 with 25% human serum protein/EC50 with no human serum protein)", "experimental": "A stage dilution series of the test samples was created on a 96-well microplate (50 μL/well).\nAliquots of human serum protein solution (human serum protein concentration 50%) were dispensed in the amount of 100 μL/well to a 96-well microplate containing the test sample. This was then left to stand for 1 h at room temperature. Culture medium in the amount of 100 μL/well in each case was dispensed to a serum-free plate for control purposes. Aliquots of MT-4 cells in the amount of 3.0×10^5/well and HIV virus liquid in the amount of 3 μL/well were mixed for the necessary number of wells and reacted for 1 h at 37° C. After the reaction, the cell suspension was centrifuged and the supernatant discarded; aliquots of infected cells were distributed to culture medium in the amount of 50 μL/well and were dispensed in the amount of 50 μL/well in each case into the wells of a 96-well microplate containing test samples and human serum protein (human serum protein concentration: 25%). Mixing was performed using a plate mixer and culturing was performed for four days with a CO2 incubator. […] MTT(3-(4, 5-dimethylthiazol-2-yl)-2, 5-diphenyltetrazolium bromide) liquid in the amount of 30 μL was dispensed to each of the wells. The reaction was performed for 1 h in a CO2 incubator. 150 μL supernatant was removed to avoid aspirating cells from the wells. 150 μL of cell solution was added and thorough mixing was performed, using a plate mixer, until all the cells were dissolved. The optical absorbance on the mixed plate was measured at two wavelengths, namely, 560 nm/690 nm, using a microplate reader.\nNext, the potency shift (PS) was calculated, using the following formula. The PS is the value of the human serum protein concentration, extrapolated to 100%."}
{"smiles": "COC[C@@H]1CC[C@H]2N(C)C(=O)c3c(O)c(=O)c(C(=O)NCc4cccc(Cl)c4F)cn3N12", "note": "[II-026]", "potency shift (PS) in the presence of human serum protein": 364}
